Source: US20240228555A9, “ANTIMICROBIAL PEPTIDOMIMETICS” (Basilea Pharmaceutica International AG, Allschwil, priority 2020, published 2024)
Where a SMILES comes first, the peptide text is derived from it.

Columns and labels:
[1] = system: Escherichia coli ATCC 25922; settings: ATCC 25922
Method in brief: (§1)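 Peptides were made up as 1 mg/mL stocks in sterile water. Colonies in 0.85% saline were set to 0.5 McFarland, then diluted in cation-adjusted Mueller-Hinton II broth to about 5×10^5 CFU/mL. Inoculum was combined with two-fold serial peptide dilutions in water containing 0.002% (final) polysorbate 80.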

[2] = system: Escherichia coli MCR-1 Af 45; settings: Mueller-Hinton broth II, no visible growth after 18-20 hours at 35° C.
Method in brief: as §1

[3] = system: Klebsiella pneumoniae SSI3010; settings: SSI3010
Method in brief: as §1

[4] = system: human red blood cells (hRBC); format: cell-based; settings: red cells of human, 1 h, 0.2 g/L
Method in brief: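 Percent lysis was derived from supernatant absorbance at 540 nm relative to full lysis by 2.5% Triton X-100 (PBS defines 0%). Compounds, 200 μg/mL, were exposed for 1 h at 37° C to a 20% (v/v) suspension of washed human red cells.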

Compound	Escherichia coli ATCC 25922 MIC [1] [µg/mL]	Escherichia coli MCR-1 Af 45 MIC [2] [µg/mL]	Klebsiella pneumoniae SSI3010 MIC [3] [µg/mL]	Hemolysis at 0.2 g/L [4] [%]
CC[C@H](C)[C@H](NC(=O)[C@@H](NC(=O)[C@@H]1C[C@@H](O)CN1C(=O)[C@@H](N)C(C)C)[C@@H](C)CC)C(=O)N[C@@H](Cc1ccc(O)cc1)C(=O)N[C@@H]1C(=O)N[C@@H](CC(N)=O)C(=O)N[C@@H](CCCNC(=N)N)C(=O)N[C@@H](CCN)C(=O)N[C@@H]([C@@H](C)O)C(=O)N[C@H](CCN)C(=O)N[C@@H](CCCCN)C(=O)N[C@H](C(=O)N[C@@H](CO)C(=O)N[C@@H](CCCNC(=N)N)C(=O)N[C@@H](Cc2ccc(O)cc2)C(=O)O)CSSC1(C)C [Example 107, Val-Hyp-Ile-Ile-Tyr-Pen-Asn-Arg-Dab-Thr-^DDab-Lys-Cys-Ser-Arg-Tyr] (HELM PEPTIDE1{V.[Hyp].I.I.Y.[Pen].N.R.[Dab].T.[NCC[C@@H](N[*:1])C(=O)[*:2]].K.C.S.R.Y}$PEPTIDE1,PEPTIDE1,6:R3-13:R3$$$V2.0)	0.25	0.25	0.5	<1
CC[C@H](C)[C@H](NC(=O)[C@@H](NC(=O)[C@@H]1C[C@@H](O)CN1C(=O)[C@@H](N)C(C)C)[C@@H](C)CC)C(=O)N[C@@H](Cc1ccc(O)cc1)C(=O)N[C@@H]1C(=O)N[C@@H](CC(N)=O)C(=O)N[C@@H](CCCNC(=N)N)C(=O)N[C@@H](CCCN)C(=O)N[C@@H]([C@@H](C)O)C(=O)N[C@H](CCN)C(=O)N[C@@H]([C@@H](C)CC)C(=O)N[C@H](C(=O)N[C@@H](CCN)C(=O)N[C@@H](CCCNC(=N)N)C(=O)N[C@@H](Cc2ccc(O)cc2)C(=O)O)CSSC1(C)C [Example 121, Val-Hyp-Ile-Ile-Tyr-Pen-Asn-Arg-Orn-Thr-^DDab-Ile-Cys-Dab-Arg-Tyr] (HELM PEPTIDE1{V.[Hyp].I.I.Y.[Pen].N.R.[Orn].T.[NCC[C@@H](N[*:1])C(=O)[*:2]].I.C.[Dab].R.Y}$PEPTIDE1,PEPTIDE1,6:R3-13:R3$$$V2.0)	0.25	0.25	0.5	<1
CC[C@H](C)[C@H](NC(=O)[C@@H]1C[C@@H](O)CN1C(=O)[C@@H](N)C(C)C)C(=O)N[C@@H](CCN)C(=O)N[C@@H](Cc1ccc(O)cc1)C(=O)N[C@@H]1C(=O)N[C@@H](CC(N)=O)C(=O)N[C@@H](CCCNC(=N)N)C(=O)N[C@@H](CCN)C(=O)N[C@@H]([C@@H](C)O)C(=O)N[C@H](CCN)C(=O)N[C@@H](CCCCN)C(=O)N[C@H](C(=O)N[C@@H](CCN)C(=O)N[C@@H](CCCN)C(=O)N[C@@H](Cc2ccc(O)cc2)C(=O)O)CSSC1(C)C [Example 89, Val-Hyp-Ile-Dab-Tyr-Pen-Asn-Arg-Dab-Thr-^DDab-Lys-Cys-Dab-Orn-Tyr] (HELM PEPTIDE1{V.[Hyp].I.[Dab].Y.[Pen].N.R.[Dab].T.[NCC[C@@H](N[*:1])C(=O)[*:2]].K.C.[Dab].[Orn].Y}$PEPTIDE1,PEPTIDE1,6:R3-13:R3$$$V2.0)	0.0625	0.0625	0.25	<1
CC[C@H](C)[C@H](NC(=O)[C@@H](NC(=O)[C@@H]1C[C@@H](O)CN1C(=O)[C@@H](N)C(C)C)[C@@H](C)CC)C(=O)N[C@@H](Cc1ccc(O)cc1)C(=O)N[C@@H]1C(=O)N[C@@H](CC(N)=O)C(=O)N[C@@H](CCCNC(=N)N)C(=O)N[C@@H](CCN)C(=O)N[C@@H]([C@@H](C)O)C(=O)N[C@H](CCN)C(=O)N[C@@H](CCCCN)C(=O)N[C@H](C(=O)N[C@@H](CCN)C(=O)N[C@@H](CO)C(=O)N[C@@H](Cc2ccc(O)cc2)C(=O)O)CSSC1(C)C [Example 105, Val-Hyp-Ile-Ile-Tyr-Pen-Asn-Arg-Dab-Thr-^DDab-Lys-Cys-Dab-Ser-Tyr] (HELM PEPTIDE1{V.[Hyp].I.I.Y.[Pen].N.R.[Dab].T.[NCC[C@@H](N[*:1])C(=O)[*:2]].K.C.[Dab].S.Y}$PEPTIDE1,PEPTIDE1,6:R3-13:R3$$$V2.0)	0.25	0.125	0.5	<1
CC[C@H](C)[C@@H]1NC(=O)[C@@H](CCN)NC(=O)[C@H]([C@@H](C)O)NC(=O)[C@H](CCN)NC(=O)[C@H](CCCNC(=N)N)NC(=O)[C@H](CC(N)=O)NC(=O)[C@@H](NC(=O)[C@H](Cc2ccc(O)cc2)NC(=O)[C@@H](NC(=O)[C@@H](NC(=O)[C@@H]2C[C@@H](N)CN2C(=O)[C@@H](N)C(C)C)[C@@H](C)CC)[C@@H](C)O)C(C)(C)SSC[C@@H](C(=O)N[C@@H](CCN)C(=O)N[C@H](C(=O)N[C@@H](Cc2ccc(O)cc2)C(=O)O)[C@@H](C)O)NC1=O [Example 117, Val-Pro((4R)NH2)-Ile-Thr-Tyr-Pen-Asn-Arg-Dab-Thr-^DDab-Ile-Cys-Dab-Thr-Tyr] (HELM PEPTIDE1{V.[N[C@@H]1C[C@@H](C(=O)[*:2])N([*:1])C1].I.T.Y.[Pen].N.R.[Dab].T.[NCC[C@@H](N[*:1])C(=O)[*:2]].I.C.[Dab].T.Y}$PEPTIDE1,PEPTIDE1,6:R3-13:R3$$$V2.0)	0.125	0.125	0.25	<1
